# Key:
# Erythema in Guinea Pigs = test: Ultraviolet induced erythema in guinea pigs, topical application; type: in vivo, Albino guinea pigs; settings: 1% in ethyl alcohol
# Protocol: Albino guinea pigs were depilitated on their flanks, the evening before testing, with a standard mixture of barium sulfide and gum acacia. On the morning of the test at 0 hour they were restrained in a plastic container which allows exposure of 3 circular spots. They were then exposed to ultraviolet irradiation from a "Hanovia" Kromayer lamp, model 10, for 60 seconds. Immediately after exposure to ultraviolet light, the guinea pigs were treated by dissolving the test compound in ethyl alcohol at various concentrations and swabbing the UV exposed areas with the aid of a cottom tipped applicator stick. At one and four hours, the degree of erythema for each of the three sites was assessed according to the following scoring system: 0=no erythema, 0.5=incomplete circle or faint erythema and 1.0=complete circle of distinct erythema. Thus, the maximum score for each animal was 3.0.
# [1] = tested on: Carrageenin Induced Edema of the Rat Paw; test: Carrageenin induced edema of the rat paw (acute anti-inflammatory activity); type: in vivo, Royal Hart, Wistar strain rats; settings: 250 mg./kg. by gavage, 5 hours after drug (4 hours after carrageenin)
# Protocol: In determining the acute anti-inflammatory activity of benzimidoylacetonitrile, Royal Hart, Wistar strain rats ranging in weight from 80 to 90 grams were used. The rats were fasted overnight prior to dosing but had free access to water. The compound was administered in aqueous suspension, by gavage, in a volume of 1.7 ml. per 50 grams of rat [corresponds by hydration volume used by Winter et al., Proc. Soc. […] The phlogistic agent used was carrageenin prepared as a sterile 1% suspension in 0.9% aqueous sodium chloride for routine testing. A volume of 0.05 ml. was injected through a 26 gauge needle into the planter tissue of the right hind paw. Measurements were made 5 hours after drug administration (4 hours after carrageenin challenge). Volumes of both the normal and carrageenin inflamed feet were determined. The difference between the two measurements is considered to be the increased edema due to the carrageenin administration.
# [2] = tested on: Adjuvant Arthritis in Rats; test: Adjuvant induced arthritis in rats (chronic inflammation with joint destruction); type: in vivo, Royal Hart, Wistar strain rats; settings: once daily days 0-13
# From the text: Adjuvant induced experimental polyarthritis is a specific systemic disease of the rat which shares interesting similarities with rheumatoid arthritis. Specifically, the histology of the two diseases bears a remarkable resemblance as shown by C. M. Pearson et al., Am. J. Pathol. 42, 73 (1963). E. M. Glenn, Am. J. Vet. Res. 27 (116), 339 (1966) has classified adjuvant induced polyarthritis as a crippling and permanent deformity resulting from diffuse connective tissue involvement around certain susceptible joints in the rat. Zahiri et al., Can. Med. Ass. J. 101, 269 (1969) have shown that the fusiform swelling of the distal joints is associated with edema, congestion and synovitis including pannus formation, all of which precede the ultimate destruction of bone and cartilage. Furthermore, Zahiri et al. indicate that the cartilage destruction in the joint is due to an invasive pannus which originates in the marginal synovium and extends across the articular surface to erode it. […] See S. Wong et al., J. Pharm. & Exptl. Ther. 185, 127 (1973) and G. R. Bobalick et al., Agents & Actions 4, 364 (1974). In a similar manner, inhibition of the progress of arthritis in paws of rats treated with the compounds of this invention also lessens associated joint deterioration.
# Groups of three Royal Hart, Wistar strain rats weighing 200±10 grams each were injected intradermally in the right hind paw with Freund's adjuvant (dried human tubercle bacilli in a mineral oil vehicle) at a dose of 2 mg./kg. of body weight. Test compounds were administered orally in a 1.5% staruh vehicle at various doses once daily on days 0 through 13 post challenge. Control rats were treated in a similar manner, but given only starch vehicle. On the 14th and 21st day post challenge the diameter of the injected paw (primary lesion) was measured by micrometer caliper. The volume of inflamed paws were estimated from these measurements and the results are expressed as percent inhibition of swelling as compared to controls. At the same time, the other inflamed sites, such as ears, paws and tail (secondary lesions) were observed and each rat was graded as to degree of inflammation and swelling present. The grading is based on a scale of 0 to 24, where 0 represents a complete absence of induced arthritic nodules and 24 represents the maximum degree of inflammation. The mean grade for each treated group is calculated and the effects of each compound are expressed as percent inhibition of the control grade. Table III records the results of these tests conducted with benzimidoylacetonitrile, m-fluorobenzimidoylacetonitrile and p-fluorobenzimidoylacetonitrile and known anti-inflammatory agents. The active compounds of the present invention suppress the progression of the arthritis and associated joint deterioration. Of particular interest is the low mortality observed with benzimidoylacetonitrile treated rats relative to either controls or rats treated with standard compounds.
# [3] = tested on: Body Temperature of Pyretic Rats; test: Body temperature in yeast induced pyrexia; type: in vivo, Royal Hart, Wistar strain rats; settings: 250 mg./kg. by gavage 17 hours after yeast; measured 19 hours post challenge
# Protocol: The effect of benzimidoylacetonitrile on body temperature in yeast induced pyrexia was determined by the following procedure. Groups of three Royal Hart, Wistar strain rats weighing 80±5 grams were injected subcutaneously in the nape of the neck with 0.6 ml. of a 40% suspension of dried brewers yeast in distilled water. […] At 19 hours post challenge the rectal temperature of each rat was measured with an electric thermometer. Each dose response experiment was replicated one or more times.
smiles,measurement,setting,value
CCCCC1C(=O)N(c2ccccc2)N(c2ccccc2)C1=O [Phenylbutazone],Erythema Score (Avg.) 1 Hr.,"Erythema in Guinea Pigs; 1 hour, maximum score 3.0, ethyl alcohol control 2.5",0.5
same,Erythema Score (Avg.) 4 Hr.,"Erythema in Guinea Pigs; 4 hours, maximum score 3.0, ethyl alcohol control 3.0",2.4
same,C/T Edema Ratio (edema of control animals/edema of treated animals),[1],2.3
same,"% Inhibition of Control Grade (secondary lesion), Day 14",[2]; 18.8 mg./kg. oral,4%
same,"% Inhibition of Control Grade (secondary lesion), Day 21",[2]; 18.8 mg./kg. oral,8%
same,"% Inhibition of Swelling (primary lesion), Day 14",[2]; 18.8 mg./kg. oral,31%
same,"% Inhibition of Swelling (primary lesion), Day 21",[2]; 18.8 mg./kg. oral,7%
same,Dead/Treated At 21 Days,[2]; 18.8 mg./kg. oral,2/21
same,"Mean Weight Gain, Day 14",[2]; 18.8 mg./kg. oral,50 grams
same,"Mean Weight Gain, Day 21",[2]; 18.8 mg./kg. oral,45 grams
same,"% Inhibition of Control Grade (secondary lesion), Day 14",[2]; 37.5 mg./kg. oral,18%
same,"% Inhibition of Control Grade (secondary lesion), Day 21",[2]; 37.5 mg./kg. oral,13%
same,"% Inhibition of Swelling (primary lesion), Day 14",[2]; 37.5 mg./kg. oral,56%
same,"% Inhibition of Swelling (primary lesion), Day 21",[2]; 37.5 mg./kg. oral,14%
same,Dead/Treated At 21 Days,[2]; 37.5 mg./kg. oral,5/39
same,"Mean Weight Gain, Day 14",[2]; 37.5 mg./kg. oral,53 grams
same,"Mean Weight Gain, Day 21",[2]; 37.5 mg./kg. oral,53 grams
same,"% Inhibition of Control Grade (secondary lesion), Day 14",[2]; 75 mg./kg. oral,27%
same,"% Inhibition of Control Grade (secondary lesion), Day 21",[2]; 75 mg./kg. oral,15%
same,"% Inhibition of Swelling (primary lesion), Day 14",[2]; 75 mg./kg. oral,62%
same,"% Inhibition of Swelling (primary lesion), Day 21",[2]; 75 mg./kg. oral,28%
same,Dead/Treated At 21 Days,[2]; 75 mg./kg. oral,2/39
same,"Mean Weight Gain, Day 14",[2]; 75 mg./kg. oral,51 grams
same,"Mean Weight Gain, Day 21",[2]; 75 mg./kg. oral,50 grams
same,"% Inhibition of Control Grade (secondary lesion), Day 14",[2]; 150 mg./kg. oral,54%
same,"% Inhibition of Control Grade (secondary lesion), Day 21",[2]; 150 mg./kg. oral,31%
same,"% Inhibition of Swelling (primary lesion), Day 14",[2]; 150 mg./kg. oral,75%
same,"% Inhibition of Swelling (primary lesion), Day 21",[2]; 150 mg./kg. oral,44%
same,Dead/Treated At 21 Days,[2]; 150 mg./kg. oral,2/27
same,"Mean Weight Gain, Day 14",[2]; 150 mg./kg. oral,40 grams
same,"Mean Weight Gain, Day 21",[2]; 150 mg./kg. oral,50 grams
same,Decrease In Body Temp.,[3],1.5 °C
"N#CCC(=N)c1cccc(F)c1 [m-Fluorobenzimidoylacetonitrile, m-fluorobenzimidoylacetonitrile]","% Inhibition of Swelling (primary lesion), Day 14",[2]; 50 mg./kg. oral,40%
same,"% Inhibition of Swelling (primary lesion), Day 21",[2]; 50 mg./kg. oral,7%
same,Dead/Treated At 21 Days,[2]; 50 mg./kg. oral,1/18
same,"Mean Weight Gain, Day 14",[2]; 50 mg./kg. oral,64 grams
same,"Mean Weight Gain, Day 21",[2]; 50 mg./kg. oral,60 grams
"N#CCC(=N)c1ccc(F)cc1 [p-Fluorobenzimidoylacetonitrile, p-fluorobenzimidoylacetonitrile]","% Inhibition of Control Grade (secondary lesion), Day 14",[2]; 25 mg./kg. oral,14%
same,"% Inhibition of Control Grade (secondary lesion), Day 21",[2]; 25 mg./kg. oral,9%
same,"% Inhibition of Swelling (primary lesion), Day 14",[2]; 25 mg./kg. oral,26%
same,"% Inhibition of Swelling (primary lesion), Day 21",[2]; 25 mg./kg. oral,14%
same,Dead/Treated At 21 Days,[2]; 25 mg./kg. oral,2/18
same,"Mean Weight Gain, Day 14",[2]; 25 mg./kg. oral,53 grams
same,"Mean Weight Gain, Day 21",[2]; 25 mg./kg. oral,50 grams
same,"% Inhibition of Control Grade (secondary lesion), Day 14",[2]; 50 mg./kg. oral,27%
same,"% Inhibition of Control Grade (secondary lesion), Day 21",[2]; 50 mg./kg. oral,8%
same,"% Inhibition of Swelling (primary lesion), Day 14",[2]; 50 mg./kg. oral,43%
same,"% Inhibition of Swelling (primary lesion), Day 21",[2]; 50 mg./kg. oral,25%
same,Dead/Treated At 21 Days,[2]; 50 mg./kg. oral,4/36
same,"Mean Weight Gain, Day 14",[2]; 50 mg./kg. oral,66 grams
same,"Mean Weight Gain, Day 21",[2]; 50 mg./kg. oral,57 grams
same,"% Inhibition of Control Grade (secondary lesion), Day 14",[2]; 100 mg./kg. oral,49%
same,"% Inhibition of Control Grade (secondary lesion), Day 21",[2]; 100 mg./kg. oral,22%
same,"% Inhibition of Swelling (primary lesion), Day 14",[2]; 100 mg./kg. oral,53%
same,"% Inhibition of Swelling (primary lesion), Day 21",[2]; 100 mg./kg. oral,29%
same,Dead/Treated At 21 Days,[2]; 100 mg./kg. oral,1/18
same,"Mean Weight Gain, Day 14",[2]; 100 mg./kg. oral,78 grams
same,"Mean Weight Gain, Day 21",[2]; 100 mg./kg. oral,67 grams

# — US4167580A, “Compositions and method of use to treat arthritic disease with m-fluorobenzimidoylacetonitrile” (American Cyanamid Company, priority 1978, dated 1979)
